Data: US20190367516A1 (Bayer Pharma Aktiengesellschaft, priority 2015, published 2019)
Read-outs that look alike come from different tables or passages of the source.

Target: T1, human M2 receptor (Homo sapiens, UniProt P08172)
T1 sequence (P08172 1-466): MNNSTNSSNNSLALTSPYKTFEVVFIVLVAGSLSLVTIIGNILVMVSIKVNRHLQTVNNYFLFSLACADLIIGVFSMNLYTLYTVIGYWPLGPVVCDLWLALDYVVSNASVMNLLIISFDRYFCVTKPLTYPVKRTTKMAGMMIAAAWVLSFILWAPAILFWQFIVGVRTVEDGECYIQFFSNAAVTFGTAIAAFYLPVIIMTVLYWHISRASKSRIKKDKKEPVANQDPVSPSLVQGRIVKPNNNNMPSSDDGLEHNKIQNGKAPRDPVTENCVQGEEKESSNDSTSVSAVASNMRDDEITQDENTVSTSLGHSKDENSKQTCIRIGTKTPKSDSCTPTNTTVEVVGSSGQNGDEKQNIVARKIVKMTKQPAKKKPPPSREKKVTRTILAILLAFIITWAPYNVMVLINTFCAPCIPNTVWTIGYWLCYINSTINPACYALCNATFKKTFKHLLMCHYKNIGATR
Conditions: for Emax: read-out: Efficiency, boosting of the acetylcholine effect at EC20 acetylcholine concentration; for Efficiency: boosting of the acetylcholine effect at EC20 acetylcholine concentration

[1] = Receptor activity EC50, M2-GIRK1/4 activation test, acetylcholine at EC20, allosteric potency, in some cases mean values from two or more determinations
[2] = Receptor activity EC50, allosteric potency at EC20 acetylcholine, M2-GIRK1/4 reporter cells, in some cases mean of two or more determinations

Question: How did the EC50 [1] turn out when `CN(C)c1ccc2c(=O)c(C(=O)NC(c3ccccc3Cl)C(F)(F)F)cn(-c3ccc(F)cc3F)c2n1` (racemic) [Example 48, rac-N-[1-(2-Chlorophenyl)-2,2,2-trifluoroethyl]-1-(2,4-difluorophenyl)-7-(dimethylamino)-4-oxo-1,4-dihydro-1,8-naphthyridine-3-carboxamide] was run?
Answer: 110 nM

Question: With `COC1(C)CN(c2ccc3c(=O)c(C(=O)N[C@@H](C(C)(C)C)C(F)(F)F)cn(-c4c(F)cc(F)cc4F)c3n2)C1` [Example 598, 7-(3-Methoxy-3-methylazetidin-1-yl)-4-oxo-N-[(2S)-1,1,1-trifluoro-3,3-dimethylbutan-2-yl]-1-(2,4,6-trifluorophenyl)-1,4-dihydro-1,8-naphthyridine-3-carboxamide] as the compound, how does the EC50 [2] read?
Answer: 21 nM

Question: And the Emax (M2-GIRK1/4 reporter cells)?
Answer: 100%

Question: With `COC1CN(c2ccc3c(=O)c(C(=O)N[C@@H](C4CC4)C(F)(F)F)cn(-c4c(F)cc(F)cc4F)c3n2)CC1O` (mixture of isomers) [Example 582, N-[(1 S)-1-Cyclopropyl-2,2,2-trifluoroethyl]-7-[trans-3-hydroxy-4-methoxypyrrolidin-1-yl]-4-oxo-1-(2,4,6-trifluorophenyl)-1,4-dihydro-1,8-naphthyridine-3-carboxamide] as the compound, how does the EC50 [2] read?
Answer: 14 nM

Question: What about the Emax (M2-GIRK1/4 reporter cells) of the same compound?
Answer: 100%

Question: For `CN(CCO)c1ccc2c(=O)c(C(=O)NC34CC5CC(CC(C5)C3)C4)cn(-c3ccc(F)cc3F)c2n1` [Example 82, 1-(2,4-Difluorophenyl)-7-[(2-hydroxyethyl)(methyl)amino]-4-oxo-N-(tricyclo[3.3.1.1^3,7]dec-1-yl)-1,4-dihydro-1,8-naphthyridine-3-carboxamide], which EC50 [1] is on record?
Answer: 60 nM

Question: With `CC(NC(=O)c1cn(-c2c(F)cc(F)cc2F)c2nc(N3C[C@@H](C)NC3=O)ccc2c1=O)C(F)(F)C(F)(F)F` (single isomer, unassigned) [Example 460] as the compound, how does the EC50 [2] read?
Answer: 5 nM

Question: What about the Efficiency (M2-GIRK1/4 reporter cells) of the same compound?
Answer: 98.0%

Question: How did the EC50 [2] turn out when `O=C(N[C@H](C1CC1)C(F)(F)F)c1cn(-c2c(F)cccc2F)c2nc(N3CCNC3=O)ccc2c1=O` [Example 629, N-[(1R)-1-Cyclopropyl-2,2,2-trifluoroethyl]-1-(2,6-difluorophenyl)-4-oxo-7-(2-oxoimidazolidin-1-yl)-1,4-dihydro-1,8-naphthyridine-3-carboxamide] was run?
Answer: 44 nM

Question: What about the Emax (M2-GIRK1/4 reporter cells) of the same compound?
Answer: 100%

Question: How did the EC50 [1] turn out when `CN(C)c1ccc2c(=O)c(C(=O)NC(C)(C)c3c(F)cccc3F)cn(-c3ccc(F)cc3F)c2n1` [Example 53, 1-(2,4-Difluorophenyl)-N-[2-(2,6-difluorophenyl)propan-2-yl]-7-(dimethylamino)-4-oxo-1,4-dihydro-1,8-naphthyridine-3-carboxamide] was run?
Answer: 58 nM

Question: `CC[C@H](NC(=O)c1cn(-c2c(F)cc(F)cc2F)c2nc(N3CCC(CO)(CO)CC3)ccc2c1=O)C(F)(F)F` [Example 500] was tested. Which EC50 [2] did it give?
Answer: 76 nM

Question: And the Emax (M2-GIRK1/4 reporter cells)?
Answer: 100%

Question: For `O=C(NC(c1ccccc1Cl)C(F)(F)F)c1cn(-c2c(F)cc(F)cc2F)c2nc(N3C[C@@H](O)CC3=O)ccc2c1=O` (single isomer, unassigned) [Example 533], which EC50 [2] is on record?
Answer: 24 nM

Question: And the Emax (M2-GIRK1/4 reporter cells)?
Answer: 100%

Question: `O=C(N[C@@H](C1CC1)C(F)(F)F)c1cn(-c2c(F)cc(F)cc2F)c2nc(N3CC[C@@H](O)[C@H](O)C3)ccc2c1=O` (single isomer, unassigned) [Example 617, N-[(1 S)-1-Cyclopropyl-2,2,2-trifluoroethyl]-7-[trans-3,4-dihydroxypiperidin-1-yl]-4-oxo-1-(2,4,6-trifluorophenyl)-1,4-dihydro-1,8-naphthyridine-3-carboxamide] was tested. Which EC50 [2] did it give?
Answer: 96 nM

Question: And the Efficiency (M2-GIRK1/4 reporter cells)?
Answer: 98.0%

Question: For `O=C(NC12CC3CC(CC(C3)C1)C2)c1cn(-c2ccc(F)cc2F)c2nc(N3CCC(O)CC3=O)ccc2c1=O` (stereo not drawn) [Example 173], which EC50 [1] is on record?
Answer: 88 nM

Question: For `CC(NC(=O)c1cn(-c2ccc(F)cc2F)c2nc(N(C)C)ccc2c1=O)C(F)(F)F` (racemic) [Example 147, rac-1-(2,4-Difluorophenyl)-7-(dimethylamino)-4-oxo-N-(1,1,1-trifluoropropan-2-yl)-1,4-dihydro-1,8-naphthyridine-3-carboxamide], which EC50 [1] is on record?
Answer: 82 nM

Question: Which results are given for `CCC(NC(=O)c1cn(-c2c(F)cc(F)cc2F)c2nc(N3C[C@@H](O)CC3=O)ccc2c1=O)C(C)C` (single isomer, unassigned) [Example 485]?
Answer: EC50 [2]: 6 nM; Emax (M2-GIRK1/4 reporter cells): 100%

Question: Which EC50 [1] does the source give for `CC[C@@H](NC(=O)c1cn(-c2ccc(F)cc2F)c2nc(N3CC(OC(=O)NC)CC3=O)ccc2c1=O)C(F)(F)F` (stereo partly drawn) [Example 200, (3S)-1-[8-(2,4-Difluorophenyl)-5-oxo-6-{[(2R)-1,1,1-trifluorobutan-2-yl]carbamoyl}-5,8-dihydro-1,8-naphthyridin-2-yl]-5-oxopyrrolidin-3-yl methyl carbamate] here?
Answer: 293 nM

Question: What does the source list for `O=C(N[C@H](C1CC1)C(F)(F)F)c1cn(-c2c(F)cc(F)cc2Cl)c2nc(N3CC4CC4(O)C3)ccc2c1=O` (mixture of isomers) [Example 415, 1-(2-Chloro-4,6-difluorophenyl)-N-[(1R)-1-cyclopropyl-2,2,2-trifluoroethyl]-7-[1-hydroxy-3-azabicyclo[3.1.0]hex-3-yl]-4-oxo-1,4-dihydro-1,8-naphthyridine-3-carboxamide]?
Answer: EC50 [2]: 6 nM; Emax (M2-GIRK1/4 reporter cells): 96%

Question: How did the EC50 [1] turn out when `CC[C@H](NC(=O)c1cn(-c2c(F)cc(F)cc2Cl)c2nc(N3C[C@@](C)(O)C[C@H]3C)ccc2c1=O)C(F)(F)F` [Example 334, 1-(2-Chloro-4,6-difluorophenyl)-7-[(2R,4S)-4-hydroxy-2,4-dimethylpyrrolidin-1-yl]-4-oxo-N-[(2S)-1,1,1-trifluorobutan-2-yl]-1,4-dihydro-1,8-naphthyridine-3-carboxamide] was run?
Answer: 7 nM

Question: For `CCCC(NC(=O)c1cn(-c2ccc(F)cc2F)c2nc(NCCO)ccc2c1=O)C(F)(F)F` (stereo not drawn) [Example 81, 1-(2,4-Difluorophenyl)-7-[(2-hydroxyethyl)amino]-4-oxo-N-[1,1,1-trifluoropentan-2-yl]-1,4-dihydro-1,8-naphthyridine-3-carboxamide], which EC50 [1] is on record?
Answer: 102 nM

Question: With `C[C@@H]1CN(c2ccc3c(=O)c(C(=O)N[C@@H](C4CC4)C(F)(F)F)cn(-c4c(F)cc(F)cc4F)c3n2)C(=O)O1` [Example 444, N-[(1S)-1-Cyclopropyl-2,2,2-trifluoroethyl]-7-[(5R)-5-methyl-2-oxo-1,3-oxazolidin-3-yl]-4-oxo-1-(2,4,6-trifluorophenyl)-1,4-dihydro-1,8-naphthyridine-3-carboxamide] as the compound, how does the EC50 [2] read?
Answer: 51 nM

Question: What about the Emax (M2-GIRK1/4 reporter cells) of the same compound?
Answer: 100%

Question: How did the EC50 [1] turn out when `CC(C)(CC(F)(F)F)NC(=O)c1cn(-c2c(F)cc(F)cc2Cl)c2nc(N3C[C@@H](O)[C@H](O)C3)ccc2c1=O` [Example 391, 1-(2-Chloro-4,6-difluorophenyl)-7-[(3R,4R)-3,4-dihydroxypyrrolidin-1-yl]-4-oxo-N-(4,4,4-trifluoro-2-methylbutan-2-yl)-1,4-dihydro-1,8-naphthyridine-3-carboxamide] was run?
Answer: 8 nM

Question: `O=C(NC12CC(F)(C1)C2)c1cn(-c2c(F)cc(F)cc2F)c2nc(N3C[C@@H](O)[C@H](O)C3)ccc2c1=O` [Example 368, 7-[(3R,4R)-3,4-Dihydroxypyrrolidin-1-yl]-N-(3-fluorobicyclo[1.1.1]pent-1-yl)-4-oxo-1-(2,4,6-trifluorophenyl)-1,4-dihydro-1,8-naphthyridine-3-carboxamide] was tested. Which EC50 [1] did it give?
Answer: 91 nM

Question: Which results are given for `O=C(Nc1c(Cl)cccc1Cl)c1cn(-c2ccc(F)cc2F)c2nc(N3CC4CC4(O)C3)ccc2c1=O` (racemic) [Example 597, N-(2,6-Dichlorophenyl)-1-(2,4-difluorophenyl)-7-[1-hydroxy-3-azabicyclo[3.1.0]hex-3-yl]-4-oxo-1,4-dihydro-1,8-naphthyridine-3-carboxamide]?
Answer: EC50 [2]: 21 nM; Emax (M2-GIRK1/4 reporter cells): 95.5%

Question: How did the EC50 [1] turn out when `CN(C)c1ccc2c(=O)c(C(=O)NC(c3ccc(F)cc3)C(F)(F)F)cn(-c3ccc(F)cc3F)c2n1` (racemic) [Example 139, rac-1-(2,4-Difluorophenyl)-7-(dimethylamino)-4-oxo-N-[2,2,2-trifluoro-1-(4-fluorophenyl)ethyl]-1,4-dihydro-1,8-naphthyridine-3-carboxamide] was run?
Answer: 65 nM

Question: `COC(=O)[C@H]1CN(c2ccc3c(=O)c(C(=O)N[C@@H](C4CC4)C(F)(F)F)cn(-c4c(F)cc(F)cc4F)c3n2)C(=O)O1` [Example 669, Methyl (5R)-3-[6-{[(1S)-1-cyclopropyl-2,2,2-trifluoroethyl]carbamoyl}-5-oxo-8-(2,4,6-trifluorophenyl)-5,8-dihydro-1,8-naphthyridin-2-yl]-2-oxo-1,3-oxazolidine-5-carboxylate] was tested. Which EC50 [2] did it give?
Answer: 106 nM

Question: And the Emax (M2-GIRK1/4 reporter cells)?
Answer: 84.9%

Question: `CC(NC(=O)c1cn(-c2c(F)cc(F)cc2F)c2nc(N3C[C@@H](O)[C@H](O)C3)ccc2c1=O)(C(F)(F)F)C(F)(F)F` [Example 591, 7-[(3R,4R)-3,4-Dihydroxypyrrolidin-1-yl]-N-(1,1,3,3,3-hexafluoro-2-methylpropan-2-yl)-4-oxo-1-(2,4,6-trifluorophenyl)-1,4-dihydro-1,8-naphthyridine-3-carboxamide] was tested. Which EC50 [2] did it give?
Answer: 16 nM

Question: What about the Emax (M2-GIRK1/4 reporter cells) of the same compound?
Answer: 100%

Question: How did the EC50 [2] turn out when `CC(C)(C)NC(=O)c1cn(-c2c(F)cc(F)cc2F)c2nc(N3C[C@@H](O)[C@H](O)C3)ccc2c1=O` [Example 479, N-tert-Butyl-7-[(3R,4R)-3,4-dihydroxypyrrolidin-1-yl]-4-oxo-1-(2,4,6-trifluorophenyl)-1,4-dihydro-1,8-naphthyridine-3-carboxamide] was run?
Answer: 38 nM

Question: And the Emax (M2-GIRK1/4 reporter cells)?
Answer: 100%
